Values of other authors as cited in patent US20260014155A1, “TICAGRELOR SOLID DISPERSION, METHOD FOR PREPARING SAME, AND USE THEREOF” (WISDOM PHARMACEUTICAL CO., LTD., priority 2022, published 2026).

Conditions: low solubility and low permeability

biopharmaceutical classification: BCS class 4
SMILES: CCCSc1nc(N[C@@H]2C[C@H]2c2ccc(F)c(F)c2)c2nnn([C@@H]3C[C@H](OCCO)[C@@H](O)[C@H]3O)c2n1 [ticagrelor, (1S,2S,3R,5S)-3-[7-{[(1R,2S)-2-(3,4-difluorophenyl)cyclopropyl]amino}-5-(propylthio)-3H-[1,2,3]-triazolo[4,5-d]pyrimidin-3-yl]-5-(2-hydroxyethoxy)cyclopentane-1,2-diol]
